Read-outs that look alike come from different tables or passages of the source.
Experiments:
[1] = biological target: hT2R3 (Homo sapiens (Human), UniProt Q9NYW6); assay: hT2R panel inhibition, transient HEK293 G16g44, agonist Chloroquine pH6.5 50 μM; format: cell-based; conditions: HEK293, compound at 25 μM
Procedure, shortened: (§1)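 Here, inhibition reflects how much the test compound lowers activation of a transiently expressed human bitter receptor stimulated at EC80. Twenty-two such receptors were tested separately.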

[2] = biological target: hT2R5 (Homo sapiens (Human), UniProt Q9NYW4); assay: hT2R panel inhibition, transient HEK293 G16g44, agonist Picoline 10 mM; format: cell-based; conditions: HEK293, compound at 25 μM
Procedure, shortened: as §1

[3] = biological target: hT2R7 (Homo sapiens (Human), UniProt Q9NYW3); assay: hT2R panel inhibition, transient HEK293 G16g44, agonist Chloroquine pH6.5 10 mM; format: cell-based; conditions: HEK293, compound at 25 μM
Procedure, shortened: as §1

[4] = biological target: hT2R8 (Homo sapiens (Human), UniProt Q9NYW2); assay: hT2R panel inhibition, transient HEK293 G16g44, agonist Andrographolide 0.5 mM; format: cell-based; conditions: HEK293, compound at 25 μM
Procedure: Specifically, in order to evaluate the inhibitory selectivity of the Compound C compound, this compound was tested against 22 human T2Rs which were deorphaned by Senomyx. These receptors and the bitter ligands that activate these human T2Rs are reported in earlier patent applications which are incorporated by reference herein. These 22 human T2Rs are hT2R1, 3, 4, 5, 7, 8, 9, 10, 13, 14, 16, 44, 51, 54, 55, 61, 63, 64, 65, 67, 71 and 75. The amino acid and nucleic acid sequences of all of these T2Rs may be found in these earlier patent applications. These human T2Rs were each individually transiently transfected into HEK293 cells that stably express the promiscuous G protein G16g44 and functional assays were effected using these receptors as disclosed in these same patent applications. […] The ligands were used at EC80 concentration levels. The list of bitter ligands utilized and the tested ligand concentrations are contained in Table 5 of this example.

[5] = biological target: hT2R10 (Homo sapiens (Human), UniProt Q9NYW0); assay: hT2R panel inhibition, transient HEK293 G16g44, agonist Strychnine 50 μM; format: cell-based
[6] = biological target: T1, hT2R14 (Homo sapiens (Human), UniProt Q9NYV8); assay: hT2R panel inhibition, transient HEK293 G16g44, agonist Aristolochic Acid 2 μM; format: cell-based; conditions: HEK293, compound at 25 μM
Procedure, shortened: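 Each hT2R was transiently transfected into HEK293 cells stably expressing G16g44 and assayed functionally for inhibition of agonist response. Agonists were applied at EC80: andrographolide at 0.5 mM for hT2R8 and aristolochic acid at 2 μM for hT2R14.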

[7] = biological target: hT2R16 (Homo sapiens (Human), UniProt Q9NYV7); assay: hT2R panel inhibition, transient HEK293 G16g44, agonist Salicin 1 mM; format: cell-based; conditions: HEK293, compound at 25 μM
Procedure, shortened: as §1

[8] = tested on: hT2R44; assay: hT2R panel inhibition, transient HEK293 G16g44, agonist Denatonium 0.5 μM; format: cell-based, human; conditions: compound at 25 μM; for screening result against bitter receptor 44: receptor activated to EC80 with the corresponding agonist
Procedure, shortened: as §1

[9] = biological target: hT2R51 (Homo sapiens (Human), UniProt P59533); assay: hT2R panel inhibition, transient HEK293 G16g44, agonist Prop 2.5 μM; format: cell-based; conditions: HEK293, compound at 25 μM
Procedure, shortened: as §1

[10] = tested on: hT2R54; assay: hT2R panel inhibition, transient HEK293 G16g44, agonist Ranitidine 5 mM; format: cell-based, human; conditions: compound at 25 μM; for screening result against bitter receptor 54: receptor activated to EC80 with the corresponding agonist
Procedure, shortened: as §1

[11] = tested on: hT2R55; assay: hT2R panel inhibition, transient HEK293 G16g44, agonist Cinchonine 150 μM; format: cell-based, human; conditions: compound at 25 μM; for screening result against bitter receptor 55: receptor activated to EC80 with the corresponding agonist
Procedure, shortened: as §1

[12] = biological target: hT2R61 (Homo sapiens (Human), UniProt P59537); assay: hT2R panel inhibition, transient HEK293 G16g44, agonist Aristolochic Acid 25 nM; format: cell-based; conditions: HEK293, compound at 25 μM
Procedure, shortened: as §1

[13] = tested on: hT2R63; assay: hT2R panel inhibition, transient HEK293 G16g44, agonist Caffeine 1 mM or Andrographolide 100 μM; format: cell-based, human; conditions: compound at 25 μM; for screening result against bitter receptor 63: receptor activated to EC80 with the corresponding agonist
Procedure, shortened: as §1

[14] = biological target: hT2R64 (Homo sapiens (Human), UniProt P59538); assay: hT2R panel inhibition, transient HEK293 G16g44, agonist Aristolochic Acid 1 μM; format: cell-based; conditions: HEK293, compound at 25 μM
Procedure, shortened: as §1

[15] = tested on: hT2R65; assay: hT2R panel inhibition, transient HEK293 G16g44, agonist Oleuropein 1 mM; format: cell-based, human; conditions: compound at 25 μM; for screening result against bitter receptor 65: receptor activated to EC80 with the corresponding agonist
Procedure, shortened: as §1

[16] = tested on: hT2R67; assay: hT2R panel inhibition, transient HEK293 G16g44, agonist Andrographolide 5 μM; format: cell-based, human; conditions: compound at 25 μM; for screening result against bitter receptor 67: receptor activated to EC80 with the corresponding agonist
Procedure, shortened: as §1

[17] = biological target: hT2R71 (Homo sapiens (Human), UniProt P59536); assay: hT2R panel inhibition, transient HEK293 G16g44, agonist Picric Acid 10 μM; format: cell-based; conditions: HEK293, compound at 25 μM
Procedure, shortened: as §1

[18] = biological target: hT2R75 (Homo sapiens (Human), UniProt P59540); assay: hT2R panel inhibition, transient HEK293 G16g44, agonist Strychnine 1 μM; format: cell-based; conditions: HEK293, read-out: screening result against bitter receptor 75, compound at 25 μM; receptor activated to EC80 with the corresponding agonist
[19] = biological target: hT2R4 (Homo sapiens (Human), UniProt Q9NYW5); assay: hT2R panel inhibition, transient HEK293 G16g44, agonist Chloroquine pH6.5 5 mM; format: cell-based; conditions: HEK293, compound at 25 μM; receptor activated to EC80 with agonist; read-out: inhibition of bitter receptor 4
Procedure, shortened: as §1

[20] = biological target: hT2R9 (Homo sapiens (Human), UniProt Q9NYW1); assay: hT2R panel inhibition, transient HEK293 G16g44, agonist Ofloxacin 1 mM; format: cell-based; conditions: HEK293, compound at 25 μM
Procedure, shortened: as §1

[21] = biological target: hT2R13 (Homo sapiens (Human), UniProt Q9NYV9); assay: hT2R panel inhibition, transient HEK293 G16g44, agonist Oxyphenonium 1 mM; format: cell-based; conditions: HEK293, compound at 25 μM
Procedure, shortened: as §1

[22] = biological target: T1, hT2R14; assay: hT2R14 antagonist high-throughput FLIPR assay, stable cell line with G16g44, agonist aristolochic acid; format: cell-based; conditions: read-out: IC50 on hT2R14 bitter receptor
Procedure, shortened: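 HEK293 cells stably expressing hT2R14 with chimeric G16g44 were stimulated with aristolochic acid (3 μM), giving 70-80% of maximal receptor activity. Test compounds were added together with the agonist, and antagonism was read as fluorescent calcium signal on FLIPR.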

[23] = receptor activated to EC80 with the corresponding agonist, read-out: screening result against bitter receptor 3
[24] = receptor activated to EC80 with the corresponding agonist, read-out: screening result against bitter receptor 5
[25] = receptor activated to EC80 with the corresponding agonist, read-out: screening result against bitter receptor 7
[26] = receptor activated to EC80 with the corresponding agonist, read-out: screening result against bitter receptor 8
[27] = HEK293, read-out: screening result against bitter receptor 10, compound at 25 μM, receptor activated to EC80 with the corresponding agonist
[28] = receptor activated to EC80 with the corresponding agonist, read-out: screening result against bitter receptor 14
[29] = receptor activated to EC80 with the corresponding agonist, read-out: screening result against bitter receptor 16
[30] = receptor activated to EC80 with the corresponding agonist, read-out: screening result against bitter receptor 51
[31] = receptor activated to EC80 with the corresponding agonist, read-out: screening result against bitter receptor 61
[32] = receptor activated to EC80 with the corresponding agonist, read-out: screening result against bitter receptor 64
[33] = receptor activated to EC80 with the corresponding agonist, read-out: screening result against bitter receptor 71
[34] = receptor activated to EC80 with agonist

hT2R5, sequence (Q9NYW4 whole entry): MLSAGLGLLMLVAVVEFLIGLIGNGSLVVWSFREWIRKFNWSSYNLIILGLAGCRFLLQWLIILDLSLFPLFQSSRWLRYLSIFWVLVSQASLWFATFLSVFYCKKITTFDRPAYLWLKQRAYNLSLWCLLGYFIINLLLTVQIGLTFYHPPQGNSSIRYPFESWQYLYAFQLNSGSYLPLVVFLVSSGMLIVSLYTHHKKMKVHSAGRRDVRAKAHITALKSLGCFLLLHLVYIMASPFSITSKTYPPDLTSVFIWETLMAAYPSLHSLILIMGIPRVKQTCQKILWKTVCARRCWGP
hT2R64, sequence (P59538 whole entry): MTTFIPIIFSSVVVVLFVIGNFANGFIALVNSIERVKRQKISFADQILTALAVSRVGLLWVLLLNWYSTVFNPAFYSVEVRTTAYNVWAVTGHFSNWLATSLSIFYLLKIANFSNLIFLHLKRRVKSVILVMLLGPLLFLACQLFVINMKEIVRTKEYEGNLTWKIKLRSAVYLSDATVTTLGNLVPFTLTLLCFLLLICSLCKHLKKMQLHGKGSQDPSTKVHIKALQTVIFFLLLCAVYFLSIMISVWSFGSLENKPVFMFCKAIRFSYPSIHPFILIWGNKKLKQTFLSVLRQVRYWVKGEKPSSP
hT2R3, sequence (Q9NYW6 whole entry): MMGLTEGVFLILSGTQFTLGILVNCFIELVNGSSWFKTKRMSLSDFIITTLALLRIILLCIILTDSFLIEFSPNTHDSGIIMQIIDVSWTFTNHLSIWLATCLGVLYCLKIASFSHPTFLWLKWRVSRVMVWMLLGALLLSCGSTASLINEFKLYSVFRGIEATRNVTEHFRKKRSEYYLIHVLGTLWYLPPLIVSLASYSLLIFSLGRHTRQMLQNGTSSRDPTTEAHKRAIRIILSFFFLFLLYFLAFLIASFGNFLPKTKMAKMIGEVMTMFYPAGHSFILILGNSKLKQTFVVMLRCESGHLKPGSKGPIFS
hT2R61, sequence (P59537 whole entry): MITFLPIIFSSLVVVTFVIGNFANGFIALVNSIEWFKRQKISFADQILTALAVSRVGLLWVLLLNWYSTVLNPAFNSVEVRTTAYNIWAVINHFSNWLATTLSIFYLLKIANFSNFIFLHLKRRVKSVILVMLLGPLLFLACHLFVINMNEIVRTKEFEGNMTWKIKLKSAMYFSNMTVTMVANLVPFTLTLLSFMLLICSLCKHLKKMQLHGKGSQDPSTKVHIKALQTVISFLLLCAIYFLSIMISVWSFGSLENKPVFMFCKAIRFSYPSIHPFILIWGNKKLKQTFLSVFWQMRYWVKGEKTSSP
hT2R10, sequence (Q9NYW0 whole entry): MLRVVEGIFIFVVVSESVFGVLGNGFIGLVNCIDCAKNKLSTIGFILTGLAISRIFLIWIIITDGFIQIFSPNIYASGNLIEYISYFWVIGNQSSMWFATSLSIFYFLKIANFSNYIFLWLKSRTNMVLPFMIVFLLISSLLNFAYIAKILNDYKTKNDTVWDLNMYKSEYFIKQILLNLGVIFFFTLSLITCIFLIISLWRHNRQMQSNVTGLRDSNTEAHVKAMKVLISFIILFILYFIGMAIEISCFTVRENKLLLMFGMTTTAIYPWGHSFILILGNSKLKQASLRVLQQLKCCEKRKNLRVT
hT2R7, sequence (Q9NYW3 whole entry): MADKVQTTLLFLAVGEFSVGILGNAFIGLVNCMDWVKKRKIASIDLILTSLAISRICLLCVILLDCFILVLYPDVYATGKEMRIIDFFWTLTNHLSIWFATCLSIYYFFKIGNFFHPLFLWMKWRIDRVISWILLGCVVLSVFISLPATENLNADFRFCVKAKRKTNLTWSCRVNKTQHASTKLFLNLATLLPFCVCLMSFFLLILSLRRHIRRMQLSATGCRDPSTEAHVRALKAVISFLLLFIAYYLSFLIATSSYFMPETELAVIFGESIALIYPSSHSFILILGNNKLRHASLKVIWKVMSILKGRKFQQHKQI
hT2R51, sequence (P59533 whole entry): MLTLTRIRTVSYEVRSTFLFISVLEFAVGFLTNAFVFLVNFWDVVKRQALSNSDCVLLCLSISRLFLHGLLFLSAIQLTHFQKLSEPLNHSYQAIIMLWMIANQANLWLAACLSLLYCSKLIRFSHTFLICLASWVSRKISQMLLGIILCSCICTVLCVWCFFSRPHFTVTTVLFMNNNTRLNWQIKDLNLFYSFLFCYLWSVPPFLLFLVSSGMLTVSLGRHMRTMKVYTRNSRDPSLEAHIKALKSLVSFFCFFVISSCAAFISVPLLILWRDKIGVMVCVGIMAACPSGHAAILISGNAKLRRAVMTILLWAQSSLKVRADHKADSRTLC
T1 sequence (Q9NYV8 whole entry): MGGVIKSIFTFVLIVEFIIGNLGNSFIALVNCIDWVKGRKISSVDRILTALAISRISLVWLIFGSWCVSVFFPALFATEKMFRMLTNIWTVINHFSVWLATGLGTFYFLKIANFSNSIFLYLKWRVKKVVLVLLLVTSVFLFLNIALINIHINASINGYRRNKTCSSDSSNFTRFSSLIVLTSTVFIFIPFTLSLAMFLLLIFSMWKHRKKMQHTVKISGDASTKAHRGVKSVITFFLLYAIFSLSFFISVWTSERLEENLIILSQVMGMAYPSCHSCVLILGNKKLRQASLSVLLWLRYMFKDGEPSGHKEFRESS
hT2R8, sequence (Q9NYW2 whole entry): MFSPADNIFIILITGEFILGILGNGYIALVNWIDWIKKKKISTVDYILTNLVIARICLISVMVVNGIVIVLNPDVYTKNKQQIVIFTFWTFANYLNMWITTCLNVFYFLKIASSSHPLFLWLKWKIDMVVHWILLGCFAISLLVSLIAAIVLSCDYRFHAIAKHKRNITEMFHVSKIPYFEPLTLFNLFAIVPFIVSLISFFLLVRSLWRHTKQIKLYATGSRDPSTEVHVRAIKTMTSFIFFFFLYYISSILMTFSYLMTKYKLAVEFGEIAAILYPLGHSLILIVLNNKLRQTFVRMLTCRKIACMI
hT2R16, sequence (Q9NYV7 whole entry): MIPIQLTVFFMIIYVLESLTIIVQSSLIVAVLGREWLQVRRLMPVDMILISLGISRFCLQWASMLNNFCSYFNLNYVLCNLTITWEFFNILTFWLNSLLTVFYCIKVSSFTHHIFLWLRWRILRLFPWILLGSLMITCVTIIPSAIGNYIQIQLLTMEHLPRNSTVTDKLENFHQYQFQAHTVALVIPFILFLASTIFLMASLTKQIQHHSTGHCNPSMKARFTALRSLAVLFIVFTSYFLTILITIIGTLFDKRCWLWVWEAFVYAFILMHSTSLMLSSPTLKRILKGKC
hT2R71, sequence (P59536 whole entry): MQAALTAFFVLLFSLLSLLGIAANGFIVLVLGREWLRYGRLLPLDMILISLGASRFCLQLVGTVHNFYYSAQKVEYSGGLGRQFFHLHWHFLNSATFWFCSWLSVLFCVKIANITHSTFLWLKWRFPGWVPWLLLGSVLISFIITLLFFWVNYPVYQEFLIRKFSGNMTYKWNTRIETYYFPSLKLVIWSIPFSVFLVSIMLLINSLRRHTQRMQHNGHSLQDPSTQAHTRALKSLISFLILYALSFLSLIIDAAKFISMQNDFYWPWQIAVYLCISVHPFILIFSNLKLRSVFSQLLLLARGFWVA
hT2R75, sequence (P59540 whole entry): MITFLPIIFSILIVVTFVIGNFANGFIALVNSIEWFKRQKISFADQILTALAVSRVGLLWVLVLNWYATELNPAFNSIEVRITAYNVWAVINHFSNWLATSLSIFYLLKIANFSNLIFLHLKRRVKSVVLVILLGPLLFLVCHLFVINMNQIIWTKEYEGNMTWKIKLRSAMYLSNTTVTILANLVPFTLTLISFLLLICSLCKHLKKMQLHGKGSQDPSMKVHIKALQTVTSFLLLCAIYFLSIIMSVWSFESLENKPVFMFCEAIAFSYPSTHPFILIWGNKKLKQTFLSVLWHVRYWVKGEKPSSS
hT2R13, sequence (Q9NYV9 whole entry): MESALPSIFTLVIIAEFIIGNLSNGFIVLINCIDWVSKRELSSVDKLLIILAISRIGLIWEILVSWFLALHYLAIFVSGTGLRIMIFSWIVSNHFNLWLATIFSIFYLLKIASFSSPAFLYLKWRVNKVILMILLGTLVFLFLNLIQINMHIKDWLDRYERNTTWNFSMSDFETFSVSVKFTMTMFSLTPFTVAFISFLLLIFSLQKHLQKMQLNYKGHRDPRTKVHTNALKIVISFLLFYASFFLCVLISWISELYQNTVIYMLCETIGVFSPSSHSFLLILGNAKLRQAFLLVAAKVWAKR
hT2R9, sequence (Q9NYW1 whole entry): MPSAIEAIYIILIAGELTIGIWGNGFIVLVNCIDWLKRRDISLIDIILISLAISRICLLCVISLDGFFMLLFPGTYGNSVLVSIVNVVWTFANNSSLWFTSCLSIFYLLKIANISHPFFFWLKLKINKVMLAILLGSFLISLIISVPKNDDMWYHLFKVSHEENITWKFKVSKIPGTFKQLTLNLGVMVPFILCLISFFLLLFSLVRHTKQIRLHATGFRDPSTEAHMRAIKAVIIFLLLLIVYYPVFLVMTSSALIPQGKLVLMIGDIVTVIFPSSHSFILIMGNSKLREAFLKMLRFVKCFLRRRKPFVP
hT2R4, sequence (Q9NYW5 whole entry): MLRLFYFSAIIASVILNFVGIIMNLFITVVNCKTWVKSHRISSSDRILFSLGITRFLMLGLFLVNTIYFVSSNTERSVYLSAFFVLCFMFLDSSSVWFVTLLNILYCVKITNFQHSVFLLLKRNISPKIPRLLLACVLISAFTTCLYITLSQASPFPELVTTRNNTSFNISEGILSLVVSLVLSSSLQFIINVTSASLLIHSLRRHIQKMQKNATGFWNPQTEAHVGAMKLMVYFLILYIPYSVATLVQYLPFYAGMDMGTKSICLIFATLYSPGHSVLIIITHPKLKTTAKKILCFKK

Row | SMILES | inhibition at 25 µM [1, 23] [%] | inhibition at 25 µM [2, 24] [%] | inhibition at 25 µM [3, 25] [%] | inhibition at 25 µM [4, 26] [%] | inhibition at 25 µM [5, 27] [%] | inhibition at 25 µM [6, 28] [%] | inhibition at 25 µM [7, 29] [%] | screening result against bitter receptor 44 [8] | inhibition at 25 µM [9, 30] [%] | screening result against bitter receptor 54 [10] | screening result against bitter receptor 55 [11] | inhibition at 25 µM [12, 31] [%] | screening result against bitter receptor 63 [13] | inhibition at 25 µM [14, 32] [%] | screening result against bitter receptor 65 [15] | screening result against bitter receptor 67 [16] | inhibition at 25 µM [17, 33] [%] | inhibition at 25 µM [18] [%] | other results
1 | Cc1ccc(CN(Cc2ccccc2)S(=O)(=O)c2ccc(C(=O)O)cc2)cc1 [Example 5-70, 4-(N-benzyl-N-(4-methylbenzyl)sulfamoyl)benzoic acid] | 40 to 60 | 40 to 60 | 20 to 40 | 20 to 40 | 40 to 60 | 60 to 80 | 40 to 60 | + (20% to 40% inhibition = +) | 40 to 60 | ++ (40% to 60% inhibition = ++) | +++ (60% to 80% inhibition = +++) | 40 to 60 | ++++ (80% or greater inhibition = ++++) | 20 to 40 | ++ (40% to 60% inhibition = ++) | + (20% to 40% inhibition = +) | 40 to 60 | 20 to 40 | 
2 | CC(C)Oc1ccc(CN(Cc2ccccc2)S(=O)(=O)c2ccc(C(=O)O)cc2)cc1 [Example 5-110, 4-(N-benzyl-N-(4-isopropoxybenzyl)sulfamoyl)benzoic acid] |  |  |  |  |  |  |  |  |  |  |  |  |  |  |  |  |  |  | inhibition at 25 µM ([1]; receptor activated to EC80 with agonist, read-out: inhibition of bitter receptor 3): 40 to 60%; inhibition at 25 µM [19]: 60 to 80%; inhibition at 25 µM ([2]; receptor activated to EC80 with agonist, read-out: inhibition of bitter receptor 5): 20 to 40%; inhibition at 25 µM ([3]; receptor activated to EC80 with agonist, read-out: inhibition of bitter receptor 7): 40 to 60%; inhibition at 25 µM ([4]; receptor activated to EC80 with agonist, read-out: inhibition of bitter receptor 8): 20 to 40%; inhibition at 25 µM ([20]; receptor activated to EC80 with agonist, read-out: inhibition of bitter receptor 9): 20 to 40%; inhibition at 25 µM ([5]; HEK293, read-out: inhibition of bitter receptor 10, compound at 25 μM, receptor activated to EC80 with agonist): 40 to 60%; inhibition at 25 µM ([21]; receptor activated to EC80 with agonist, read-out: inhibition of bitter receptor 13): 20 to 40%; inhibition at 25 µM ([6]; receptor activated to EC80 with agonist, read-out: inhibition of bitter receptor 14): > 80%; inhibition at 25 µM ([7]; receptor activated to EC80 with agonist, read-out: inhibition of bitter receptor 16): 20 to 40%; inhibition of bitter receptor 44 [8, 34]: +++ (60% to 80% inhibition = +++); inhibition at 25 µM ([9]; receptor activated to EC80 with agonist, read-out: inhibition of bitter receptor 51): 40 to 60%; inhibition of bitter receptor 54 [10, 34]: + (20% to 40% inhibition = +); inhibition of bitter receptor 55 [11, 34]: ++++ (80% or greater inhibition = ++++); inhibition at 25 µM ([12]; receptor activated to EC80 with agonist, read-out: inhibition of bitter receptor 61): > 80%; inhibition of bitter receptor 63 [13, 34]: +++ (60% to 80% inhibition = +++); inhibition at 25 µM ([14]; receptor activated to EC80 with agonist, read-out: inhibition of bitter receptor 64): 60 to 80%; inhibition of bitter receptor 65 [15, 34]: +++ (60% to 80% inhibition = +++); inhibition of bitter receptor 67 [16, 34]: + (20% to 40% inhibition = +); inhibition at 25 µM ([17]; receptor activated to EC80 with agonist, read-out: inhibition of bitter receptor 71): 60 to 80%
3 | COc1ccc(CN(Cc2cccc(Cl)c2)S(=O)(=O)c2ccc(C(=O)O)cc2)cc1 [Example 5-14, 4-(N-(3-chlorobenzyl)-N-(4-methoxybenzyl)sulfamoyl)benzoic acid] | > 80 | 60 to 80 | 60 to 80 | 20 to 40 | > 80 | > 80 | 60 to 80 | +++ (60% to 80% inhibition = +++) | 60 to 80 | ++++ (80% or greater inhibition = ++++) | ++++ (80% or greater inhibition = ++++) | > 80 | ++++ (80% or greater inhibition = ++++) | > 80 | ++++ (80% or greater inhibition = ++++) | ++ (40% to 60% inhibition = ++) | > 80 | 40 to 60 | IC50 [22]: 1.88 µM; inhibition at 25 µM ([20]; receptor activated to EC80 with the corresponding agonist, read-out: screening result against bitter receptor 9): 40 to 60%; inhibition at 25 µM ([21]; receptor activated to EC80 with the corresponding agonist, read-out: screening result against bitter receptor 13): 20 to 40%
